According to US11174253B2, “Compound and pharmaceutical composition containing the same” (ALPHALA CO., LTD., priority 2017, dated 2021):

Columns and labels:
Type in all cases: cell-based
[1] = system: Hep3B hepatocellular carcinoma cell line; assay: MTS cell viability assay (NCI-60 methodology), GI50/LC50, Hep3B; conditions: Homo sapiens, 48 h, Hep3B cells, 2 days incubation with compound
Protocol: (§1) The number of treated cells was determined by GE InCell 2200 system, and treated cells were stained with Hoechst 33342 which can reveal the remained nucleus in culture plate. The proportion of survival cells then were calculated with the ratio of treated/non-treated cells. The growth inhibition/cytotoxic effect of selected compounds were evaluated by the following protocol of NCI-60 screening platform. The human tumor cell lines are plating on a 96 well plate in a fixed density 24 hr prior compound treatment. Compounds with multiple concentrations are then added into each well for further 48 hr incubation. Cell viability is assessed by MTS method and the potency of compound is represented by GI50 and LC50 calculated by MTS result.
(§2) The cell viability measurement is based on the NCI-60 screening methodology (Nat. Rev. Cancer 6, 813-823, 2006). Briefly, cells are inoculated into 96-well plates at the optimal plating density. After 24 h, one of the two plates for each cell line is processed to determine a time zero cell viability (Tz) by MTS assay (Promega). Compounds are added over a 2-fold serial dilution to provide a total five drug concentrations plus DMSO control. Plates are incubated for a further 2 days, then measured cell viability by MTS assay [control growth (C) and test growth in the presence of drug at the five concentration levels (Ti)]. Growth inhibition of 50% (GI50) is calculated from [(Ti−Tz)/(C−Tz)]×100=50, which is the drug concentration resulting in a 50% reduction of control cells during the drug incubation. The LC50 is calculated from [(Ti−Tz)/Tz]×100=−50, which is the drug concentration resulting in a 50% reduction at the end of the drug treatment as compared to that at the beginning.
(§3) Herein, Hep3B refers to hepatocellular carcinoma cell line, SW480 refers to colon adenocarcinoma cell line, and NCI-H460 refers to human lung cancer cell line.

[2] = system: SW480 colon adenocarcinoma cell line; assay: MTS cell viability assay (NCI-60 methodology), GI50/LC50, SW480; conditions: Homo sapiens, 48 h, SW480 cells, 2 days incubation with compound
Protocol: as §1, §2, §3

[3] = system: hepatocellular carcinoma cell line Hep3B; assay: Growth inhibition of Hep3B cells, 48 hr treatment, Hoechst 33342 nucleus count (GE InCell 2200); conditions: Homo sapiens
How it was run: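 Compound exposure lasted 48 hr at 37° C, 5% CO2. Surviving nuclei were counted after Hoechst 33342 staining, and survival was expressed as the treated/non-treated cell number ratio, including the ratio at 10 μM compound.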

[4] = system: NCI-H460 human lung cancer cell line; assay: MTS cell viability assay (NCI-60 methodology), GI50/LC50, NCI-H460; conditions: 48 h, NCI-H460 cells, 2 days incubation with compound
Protocol: as §1, §2, §3

[5] = Table 1, ratio of number of tumor cells treated with 10 μM compound to non-treated cells
[6] = Table 5, ratio of number of tumor cells treated with 10 μM compound to non-treated cells
[7] = Table 6, ratio of number of tumor cells treated with 10 μM compound to non-treated cells

Row | SMILES | GI50 [1] [nM] | LC50 [1] [nM] | GI50 [2] [nM] | GI50 [4] [nM] | viability at 10 µM [3, 7] [%] | also measured
1 | Nc1nc2ccc(CC(=O)Nc3nnc(-c4ccc(Br)cc4)s3)cc2s1 [Compound 1-7, 2-(2-aminobenzo[d]thiazol-6-yl)-N-(5-(4-bromophenyl)-1,3,4-thiadiazol-2-yl)acetamide] | 3170 | 9400 | 7700 | – | – | –
2 | CCCOc1ccccc1-c1nnc(NC(=O)Cc2ccc3nc(N)sc3c2)s1 [Compound 1-10, 2-(2-aminobenzo[d]thiazol-6-yl)-N-(5-(2-propoxyphenyl)-1,3,4-thiadiazol-2-yl)acetamide] | 170 | 550 | 900 | – | – | LC50 (NCI-60 lethal concentration, 50% net cell loss vs time zero) [2]: 5170 nM; viability at 10 µM [3, 5]: 61%
3 | CC(C)Oc1ccccc1-c1nnc(NC(=O)Cc2ccc3nc(N)sc3c2)s1 [Compound 1-15, 2-(2-aminobenzo[d]thiazol-6-yl)-N-(5-(2-isopropoxyphenyl)-1,3,4-thiadiazol-2-yl)acetamide] | 170 | 500 | 620 | – | – | viability at 10 µM [3, 5]: 56%
4 | CCC(CC)Oc1ccc(-c2nnc(NC(=O)Cc3ccc4nc(N)sc4c3)s2)cc1 [Compound 1-16, 2-(2-aminobenzo[d]thiazol-6-yl)-N-(5-(4-(pentan-3-yloxy)phenyl)-1,3,4-thiadiazol-2-yl)acetamide] | 2830 | 4340 | 7260 | – | – | viability at 10 µM [3, 5]: 84%
5 | CCCOc1ccc(-c2nnc(NC(=O)Cc3ccc4nc(N)sc4c3)s2)cc1 [Compound 1-17, 2-(2-aminobenzo[d]thiazol-6-yl)-N-(5-(4-propoxyphenyl)-1,3,4-thiadiazol-2-yl)acetamide] | 600 | 890 | 1810 | – | – | viability at 10 µM [3, 5]: 82%
6 | CCCCOc1ccccc1-c1nnc(NC(=O)Cc2ccc3nc(N)sc3c2)s1 [Compound 1-20, 2-(2-aminobenzo[d]thiazol-6-yl)-N-(5-(2-butoxyphenyl)-1,3,4-thiadiazol-2-yl)acetamide] | 210 | 630 | 1150 | – | – | viability at 10 µM [3, 5]: 81%
7 | CCOc1ccc(-c2nnc(NC(=O)Cc3ccc4nc(N)sc4c3)s2)c(OCCN(C)C)c1 [Compound 1-29, 2-(2-aminobenzo[d]thiazol-6-yl)-N-(5-(2-(2-(dimethylamino)ethoxy)-4-ethoxyphenyl)-1,3,4-thiadiazol-2-yl)acetamide] | 200 | 1100 | 3340 | 5200 | – | –
8 | CCOc1ccc(-c2nnc(NC(=O)Cc3ccc4nc(N)sc4c3)s2)c(OCCOC)c1 [Compound 1-32, 2-(2-aminobenzo[d]thiazol-6-yl)-N-(5-(4-ethoxy-2-(2-methoxyethoxy)phenyl)-1,3,4-thiadiazol-2-yl)acetamide] | 170 | 540 | 230 | 140 | – | LC50 (concentration giving 50% net cell loss versus time zero, NCI-60 definition) [4]: 600 nM; LC50 (NCI-60 lethal concentration, 50% net cell loss vs time zero) [2]: 690 nM
9 | CCOc1cc(OCC)c(-c2nnc(NC(=O)Cc3ccc4nc(N)sc4c3)s2)cn1 [Compound 1-35, 2-(2-aminobenzo[d]thiazol-6-yl)-N-(5-(4,6-diethoxypyridin-3-yl)-1,3,4-thiadiazol-2-yl)acetamide] | 550 | 3680 | – | 1420 | – | viability at 10 µM [3, 5]: 42%
10 | Cc1ccc(-c2nc(NC(=O)Cc3ccc4nc(N)sc4c3)sc2-c2ccc(Br)cc2)cc1 [Compound 3-3, 2-(2-aminobenzo[d]thiazol-6-yl)-N-(5-(4-bromophenyl)-4-(p-tolyl)thiazol-2-yl)acetamide] | 1140 | – | 7970 | – | – | viability at 10 µM ([3]; Table 3, ratio of number of tumor cells treated with 10 μM compound to non-treated cells): 71%
11 | Cc1ccc(-c2nc(NC(=O)Cc3ccc4nc(N)sc4c3)sc2-c2ccc(F)cc2)cc1 [Compound 3-4, 2-(2-aminobenzo[d]thiazol-6-yl)-N-(5-(4-fluorophenyl)-4-(p-tolyl)thiazol-2-yl)acetamide] | 2070 | – | – | 3020 | – | –
12 | CCOc1ccc(-c2nc(NC(=O)Cc3ccc4nc(N)sc4c3)sc2-c2ccc(F)cc2)cc1 [Compound 3-9, 2-(2-aminobenzo[d]thiazol-6-yl)-N-(4-(4-ethoxyphenyl)-5-(4-fluorophenyl)thiazol-2-yl)acetamide] | 2270 | – | 8950 | 2390 | – | –
13 | CCCOc1ccc(-c2nc(NC(=O)c3ccc([N+](=O)[O-])s3)sc2Oc2ccc(OC(F)(F)F)cc2)cc1 [Compound 5-8, 5-nitro-N-(4-(4-propoxyphenyl)-5-(4-(trifluoromethoxy)phenoxy)thiazol-2-yl)thiophene-2-carboxamide] | 3430 | – | – | 3010 | – | LC50 (concentration giving 50% net cell loss versus time zero, NCI-60 definition) [4]: 4660 nM; viability at 10 µM [3, 6]: 24%
14 | CCCOc1ccc(-c2nc(NC(=O)c3ccc([N+](=O)[O-])s3)sc2Oc2ccccc2)cc1 [Compound 5-9, 5-nitro-N-(5-phenoxy-4-(4-propoxyphenyl)thiazol-2-yl)thiophene-2-carboxamide] | 2430 | – | – | 1110 | – | LC50 (concentration giving 50% net cell loss versus time zero, NCI-60 definition) [4]: 2860 nM; viability at 10 µM [3, 6]: 32%
15 | CC(C)Oc1ccc(-c2nc(NC(=O)c3ccc([N+](=O)[O-])s3)sc2Oc2ccccc2)cc1 [Compound 5-10, N-(4-(4-isopropoxyphenyl)-5-phenoxythiazol-2-yl)-5-nitrothiophene-2-carboxamide] | 2530 | – | – | 880 | – | LC50 (concentration giving 50% net cell loss versus time zero, NCI-60 definition) [4]: 5310 nM; viability at 10 µM [3, 6]: 29%
16 | Cc1ccc(-c2nc(NC(=O)c3ccc([N+](=O)[O-])s3)sc2-c2ccc(Br)cc2)cc1 [Compound 6-2, N-(5-(4-bromophenyl)-4-(p-tolyl)thiazol-2-yl)-5-nitrothiophene-2-carboxamide] | 1270 | 1940 | 970 | – | – | LC50 (NCI-60 lethal concentration, 50% net cell loss vs time zero) [2]: 2720 nM
17 | CC(C)(C)c1ccc(-c2nc(NC(=O)c3ccc([N+](=O)[O-])s3)sc2C#N)cc1 [Compound 6-50, N-(4-(4-(tert-butyl)phenyl)-5-cyanothiazol-2-yl)-5-nitrothiophene-2-carboxamide] | – | – | – | – | 53 | –
18 | CC(C)(C)c1ccc(-c2nc(NC(=O)c3ccc([N+](=O)[O-])s3)sc2-c2cc(F)c(F)c(F)c2)cc1 [Compound 6-51, N-(4-(4-(tert-butyl)phenyl)-5-(3,4,5-trifluorophenyl)thiazol-2-yl)-5-nitrothiophene-2-carboxamide] | – | – | – | – | 50 | –
19 | CC(C)(C)c1ccc(-c2nc(NC(=O)c3ccc([N+](=O)[O-])s3)sc2-c2c(F)cc(F)cc2F)cc1 [Compound 6-52, N-(4-(4-(tert-butyl)phenyl)-5-(2,4,6-trifluorophenyl)thiazol-2-yl)-5-nitrothiophene-2-carboxamide] | – | – | – | – | 37 | –
20 | CC(C)(C)c1ccc(-c2nc(NC(=O)c3ccc([N+](=O)[O-])s3)sc2-c2ccccc2Cl)cc1 [Compound 6-55, N-(4-(4-(tert-butyl)phenyl)-5-(2-chlorophenyl)thiazol-2-yl)-5-nitrothiophene-2-carboxamide] | – | – | – | – | 30 | –
21 | CC(C)(C)c1ccc(-c2nc(NC(=O)c3ccc([N+](=O)[O-])s3)sc2-c2cccc(Cl)c2)cc1 [Compound 6-56, N-(4-(4-(tert-butyl)phenyl)-5-(3-chlorophenyl)thiazol-2-yl)-5-nitrothiophene-2-carboxamide] | – | – | – | – | 28 | –
22 | CC(C)(C)c1ccc(-c2nc(NC(=O)c3ccc([N+](=O)[O-])s3)sc2-c2ccccc2Br)cc1 [Compound 6-57, N-(5-(2-bromophenyl)-4-(4-(tert-butyl)phenyl)thiazol-2-yl)-5-nitrothiophene-2-carboxamide] | – | – | – | – | 29 | –
23 | CC(C)(C)c1ccc(-c2nc(NC(=O)c3ccc([N+](=O)[O-])s3)sc2-c2cccc(Br)c2)cc1 [Compound 6-58, N-(5-(3-bromophenyl)-4-(4-(tert-butyl)phenyl)thiazol-2-yl)-5-nitrothiophene-2-carboxamide] | – | – | – | – | 32 | –
24 | CC(C)(C)c1ccc(-c2nc(NC(=O)c3ccc([N+](=O)[O-])s3)sc2Br)cc1 [Compound 6-60, N-(5-bromo-4-(4-(tert-butyl)phenyl)thiazol-2-yl)-5-nitrothiophene-2-carboxamide] | – | – | – | – | 45 | –
